Laboratory results from a melting point compilation (Tetko et al.; mined from patent text by program, amines drawn as free bases though some values may be those of a salt).
Counter-ions that a name gives are not always drawn. Residues, ends and D or L forms follow the SMILES beside them. *: point of attachment. Boc = CC(C)(C)OC(=O)*; Tfa = O=C(C(F)(F)F)*

melting point	Compound
251 to 253 °C	CN1C(=O)CCCc2cc(Nc3ncc(Cl)c(NC4CCCCC4C(N)=O)n3)ccc21 (configuration not stated)
40 to 41 °C	CCCCCCCCCCCCCCOc1ccc(CBr)cc1
217 to 218 °C	Cc1cc2c(cc1C)C(=O)C(=O)N2
112 to 114 °C	CC(=O)c1ccc(OCCCCN2C(=O)c3ccccc3C2=O)cc1
90 to 94 °C	Cn1c(SC(Cl)=C(Cl)C#N)nnc1C(F)(F)F
142 to 145 °C	O=C(O)C(Cc1ccccc1)C(=O)NCc1cccc2ccccc12 (configuration not stated)
116 to 117 °C	C#CCn1c(C)c(C)c2cnnc(OCc3ccccc3)c21
138 to 145 °C	CC[C@@H](Nc1nc(NCc2cccnc2)c2ncn(C(C)C)c2n1)C(C)(C)O
84.2 °C	COC(=O)c1nc2ccc(CO)cc2cc1C
168 to 169 °C	CCCCOc1c(CNC(=O)OC(C)(C)C)n(CC(C)(C)C)c(=O)c2ccc(F)cc12
233 °C	OCc1cc(-c2cnn3c(C(F)(F)F)cc(-c4ccc(Cl)c(Cl)c4)nc23)ccn1
153 to 155 °C	COc1ccc2c(C(=O)O)c(OC)ccc2c1
134 °C	CC(C)(C)OC(=O)NCCNC(=O)c1cc(Br)ccn1
106 to 108 °C	CS(=O)(=O)OCCCCC1C(=O)Nc2cc(F)ccc21 (configuration not stated)
231 to 233 °C	CCn1cc(C(C)=O)c(=O)c2ccc(-c3ccncc3)cc21
242 °C	COC(=O)C1=C(C)NC(C)=C(C#N)C1c1cccc2ncc(-c3ccccc3)cc12 (configuration not stated)
147 to 148 °C	COc1ccc2c(N=O)c(O)ccc2c1
127 to 128 °C	Cc1cc2c(c(C)c1N)C(c1ccccc1)CO2 (configuration not stated)
94 to 96 °C	COc1ccc(CC(=O)O)cc1C(C)C
190 to 191 °C	O=C(NC1CCN(CCCc2ccccc2)CC1)C1=Cc2cnc3cccc(n23)S1
150 °C	COc1cc2c(cc1OC)CN(CCc1ccc(N)cc1)C2
220 to 223 °C	CC(C)Nc1nc(-n2cc(C(=O)O)c(=O)c3cc(F)c(N4CC(N)C4)c(Cl)c32)c(F)cc1F
90 to 93 °C	C=CC[C@@H]1[C@H](O)[C@@H](O)C(=O)N1Cc1ccccc1 (relative stereo)
105 to 107 °C	COc1ccc(S(=O)(=O)CNC=O)cc1

melting point	Compound
218 to 220 °C	C=CCOc1ccc(C=CC(=O)N2CCN(c3nc(N)c4cc(OC)c(OC)cc4n3)CC2)cc1
97 to 99 °C	CN1NCc2c(Cl)ncnc21
125 to 126 °C	C(=C\c1nc(COc2ccc(CCCCn3ccnn3)cc2)co1)/c1ccccc1
128 to 129 °C	CC(=O)c1ccc2c(c1)C(C)c1cc(C(C)=O)ccc1-2
81 to 85 °C	O=C(Cc1ccccc1)c1ccc(OC=C(F)F)cc1
> 260 °C	Cn1ccc2c(-n3cc(C(=O)NC(=N)N)c4cccnc43)ncnc21
134 °C	O=C(O)c1ccc(Cl)c(S(=O)(=O)NC2CCCCCCC2)c1
118 to 120 °C	CN1NC(=O)CSC1=Nc1ccc(Cl)c(Cl)c1
67 to 69 °C	CCOc1c(CS(=O)(=O)C2=NOC(C)(CCl)C2)c(C(F)(F)F)nn1CC (configuration not stated)
55 to 57 °C	COC(=O)CSc1ccc(OC)cc1C(=O)OC
150 to 157 °C	CC(C)(C)CC(=O)NC(Cc1ccc(OCc2ccccc2)cc1)C(=O)Nc1c(F)cc(F)cc1F (configuration not stated)
231 to 235 °C	O=C(O)Cc1cc(=O)c(O)cn1Cc1ccccc1
174 to 177 °C	Nc1c(Br)cccc1CS(=O)(=O)c1ccccc1
262 °C	CC(C)(C)OC(=O)n1ccc(-c2ccc(F)cc2)c1-c1ccc(S(C)(=O)=O)cc1
151 to 153 °C	Cc1cc(C)c(Oc2cccc(C#N)c2C#N)c(C)c1
269 to 271 °C	Cc1nc2ccccc2n(-c2ccc(N)cc2)c1=O
120 to 123 °C	Cc1ccc(NC(=N)c2ccncc2)cc1
224 to 226 °C	Cc1c2c(cc3ccc(O)cc13)-c1ccc(O)cc1CO2
140 to 145 °C	COC(=O)C1CCC2C3CCC4CC5OC5CC4(C)C3C(=O)CC12C (configuration not stated)
178 to 179 °C	CS(=O)(=O)Nc1ccc([N+](=O)[O-])cc1C(=O)C1CCCCC1
128 to 130 °C	C=CCCC(=O)N1CCc2nnc(N(C)N)cc2C1
161 to 162 °C	CCOC(=O)c1c(NC)n[nH]c1C
113 to 117 °C	CC1=Nc2ccccc2CC(c2ccsc2)N1C (configuration not stated)
53 to 54 °C	N#CCCSc1ccc(Cl)cc1

melting point	Compound
137 to 140 °C	O=[N+]([O-])c1cnc(N2CCc3ccccc3CC2)c([N+](=O)[O-])c1
70 to 71 °C	CC(CN(C(C)C)C(C)C)N1C(=O)C(=O)c2ccccc21 (configuration not stated)
221 °C	CN(CCO)S(=O)(=O)c1cc(NC(=O)c2cnn3c(C(F)(F)F)cc(-c4ccc(C(F)(F)F)cc4)nc23)c(Cl)s1
211 to 214 °C	COC(=O)C(Cc1ccccc1)NC(=O)C(Cc1ccccc1)NC(=O)C(CC(N)=O)NC(=O)CNC(=O)OC(C)(C)C (configuration not stated) (Boc-GNFF-OMe; configuration not given here)
107 to 110 °C	COCc1nc(C(=O)OC)c(C(=O)OC)n1Cc1ccc([N+](=O)[O-])cc1
134 to 143 °C	Fc1cc(C(F)(F)F)cc(Cl)c1Oc1ccc2cn[nH]c2c1
197 to 198 °C	CC(=O)NC[C@H]1CN(c2ccc(N3CCN(C(=O)CCC(=O)c4ccc(Br)cc4)CC3)c(F)c2)C(=O)O1
118 to 119 °C	CCCCCC(O)C=Cn1c(=O)n(CCN2CCN(c3ccccc3OC)CC2)c(=O)c2ccccc21 (configuration not stated)
99 to 101 °C	CC(C)(C)OC(=O)CC[C@@H](NC(=O)OCc1ccccc1)c1nnn[nH]1
101 to 103 °C	COC(=O)NCc1cc(C(C)=NOCc2ccc(F)cc2)ccc1Cl
192 °C	CC(C)CC1Cc2cc(OCC(=O)O)c(Cl)c(Cl)c2C1=O (configuration not stated)
79 to 80 °C	CCOC(=O)C(CC(F)(F)CC(C)C1CCC2C3CC=C4CC(OC5CCCCO5)CCC4(C)C3CCC12C)C(=O)OCC (configuration not stated)
262 to 264 °C	CN1c2ccccc2-c2nc3ccc(/C=C/C#N)cc3c3cccc1c23
194 to 196 °C	CSC(=Cc1ccccc1N(Cc1ccccc1)c1c(Cl)cccc1Cl)S(C)=O (configuration not stated)
189 to 191 °C	C[Si](C)(C)c1ccc2cc(C(=O)O)n(Cc3cccc(F)c3)c2c1
268 to 270 °C	Cc1cccc(-c2[nH]c(C(C)C)nc2-c2ccc(F)c(-c3c[nH]cn3)c2)n1
210 to 214 °C	Cn1cc(-c2cc3nccnc3[nH]2)c2cc(C(=O)NC(C)(C)CO)ccc21
93 to 94 °C	Cn1cc(-c2nsc(Cl)n2)c2ccccc21
216 to 217 °C	CC(C)(O)C1COCc2nc3c(N)nc4ccccc4c3n21 (configuration not stated)
211 to 212 °C	N#CCc1ccc(CCOc2ccc(CC3SC(=N)NC3=O)cc2)nc1 (configuration not stated)
229 to 231 °C	CN(C)C(=O)c1nc(-c2ccccc2)nc2c1c1ccc(F)cc1n2C
77 to 79 °C	CCc1cc(CCN2C(=O)c3ccccc3C2=O)c(OC)nc1C
131 to 133 °C	CCCc1c2c(cc3c(=O)cc(C(=O)OCC)oc13)C(O)C(C(=O)OCC)(C(=O)OCC)O2 (configuration not stated)
160 to 161 °C	COCCc1cc(N2CCN(C)CC2)n2nc(SC)c(S(=O)(=O)c3ccccc3)c2n1

melting point	Compound
131 to 132 °C	NC(=O)CCCCCc1cccc2cncn12
207 to 210 °C	CC(=O)n1nc(-c2cccc([N+](=O)[O-])c2)n2nc(C)cc12
96 to 98 °C	CC(=O)Nc1ccc([C@@H]2CO2)cn1
180 to 181 °C	COc1ccc(S(=O)(=O)N2CCc3cccc(-c4ccc(C(F)(F)F)cc4)c32)cc1
> 300 °C	CCOC(=O)c1ccc(C(=O)O)s1
129 to 130 °C	CSN=C1C(=O)N2C1SC(C)(C)C2C(=O)OCC(Cl)(Cl)Cl (configuration not stated)
89 to 91 °C	CCCCC(=N)OCC
120 to 122 °C	COc1ccc(COc2cc(N)c(Cl)cc2C(=O)CCCCN2CCCCC2)cc1OC
129 °C	OCCON=Cc1cnc2ccccc2c1
184 °C	Cn1c(=O)c2ccccc2n(C)c1=S
155 to 157 °C	CCNc1cccnc1N1CCN(C(=O)c2ccc(C(=O)O)cn2)CC1
115 to 118 °C	COc1cc(CNC(c2ccccc2)c2ccccc2)ccc1O
136 to 140 °C	COc1ccc(CC2(C(=O)N[C@@H](Cc3ccc(NC(=O)c4c(Cl)cccc4Cl)cc3)C(=O)O)CCCCC2)cc1
209 to 216 °C	O=C(NC1CCN(CCc2ccc([N+](=O)[O-])cc2)CC1)c1ccccc1
66 to 68 °C	C#CC(C)OC(=O)c1cccc2ccccc12 (configuration not stated)
232 to 234 °C	CC(C)(C)CC(=O)NCc1ccc2c(c1)C(=O)N(C1CCC(=O)NC1=O)C2=O (configuration not stated)
150 to 151 °C	COC(=O)C(Cc1ccccc1)NC(=O)C(CC(=O)O)NC(=O)C(F)(F)F (stereo not drawn) (Tfa-Asp-Phe-OMe; configuration not given here)
60 to 62 °C	OCC12OC1CC(OCc1ccccc1)C2COCc1ccccc1 (configuration not stated)
225 to 226 °C	CC(C)n1nc(-c2sc(NC(=O)c3ccc(F)cc3)nc2-c2ccccc2)ccc1=O
227 to 229 °C	Nc1ncnc2c1nc(OC(=O)c1ccccc1)n2Cc1ccccc1
119 to 121 °C	Cc1cc(C)n(-c2ccc(N3CCOCC3)nn2)n1
208 to 209 °C	CC1(C)NC(=O)OC12CCN(C(=O)OCc1ccccc1)CC2
142 to 143 °C	COCc1cc(-n2cc(-c3ccc(-c4ccco4)cc3)c(C(F)(F)F)n2)ccc1S(C)(=O)=O

Compound	melting point
CC(C)C1=NCCSC1=NOC(=O)N(C)SN1CCOCC1	127 to 128 °C
Nc1c2c(nc3ccccc13)CCCC2N1CCC(c2ccccc2)CC1 (configuration not stated)	189 to 190 °C
CCN(Cc1ccccc1)C(=O)Cc1c(-c2ccc(Cl)cc2)nc2cc(C)ccn12	192 to 193 °C
CN(C)C1(c2ccccc2)CC=C(c2c[nH]c3ccccc23)CC1 (configuration not stated)	164 to 172 °C
CCCCCc1ccc(C(=O)NC2N=C(c3ccccc3)c3ccccc3NC2=O)cc1 (racemic)	203 to 205 °C
COc1ccc(-c2ccoc2)c2c1c(CCN(C)C)cn2C	80 to 81 °C
CCOC(=O)c1c(C)n(Cc2ccc3ccccc3n2)c2ccc(OCc3ccc4ccccc4n3)cc12	162 to 163 °C
